Laboratory results published in US8895035B2, “Alkoxyimino derivative and pest control agent” (Kumiai Chemical Industry Co., Ltd, priority 2010, dated 2014).

Experiments:
Format in all cases: in vivo
[1] = system: Brown planthopper (Nilaparvata lugens); experiment: Trial of systematic insecticidal activity against brown planthopper; conditions: 144 h, 1,800 ppm active ingredient, 250 μl poured to rice-plant foot of rice seedlings, 3-age larvae, 25° C., after 6 days, read-out: insect mortality
Description: A wettable powder prepared based on Formulation Example 2 was diluted with water so that the concentration of active ingredient became 1,800 ppm. 250 μl of the diluted formulation was poured to the rice-plant foot of 2.5-leaf age rice seedlings planted in a paper pot of 1.5 cm (length)×1.5 cm (width)×3 cm (height). Then, the paper pot was placed in a plastic cup of 700 ml. Into the plastic cup were released 5 3-age larvae of Nilaparvata lugens Stál (brown rice planthopper). The cup was covered with a cap and placed in a thermostat of 25° C. After 6 days, the number of living insects was counted and the mortality of insect was calculated using the calculation formula of Mathematical Expression 1.

[2] = system: Aphis gossipii Glover (cotton aphid, melon aphid); experiment: Insecticidal action test for Aphis gossipii Glover (seedling immersion); conditions: 72 h, 500 ppm active ingredient, cucumber seedlings with hatchlings immersed, 25° C., after 3 days, read-out: insect mortality
Description: A wettable powder prepared based on Formulation Example 2 was diluted with water so that the concentration of active ingredient became 500 ppm. In the resulting liquid were immersed cucumber seedlings on which the hatchlings of Aphis gossipii Glover were parasitic, after which the cucumber seedlings were dried in the air. The resulting cucumber seedlings were placed in a thermostat of 25° C. After 3 days, the number of living insects was calculated and the mortality of insect was calculated using the calculation formula of the following Mathematical Expression 1. Insect mortality (%)=[1−(number of living insects)/(number of tested insects)]×100 [Mathematical Expression 1]

[3] = system: Aphis gossipii Glover (cotton aphid, melon aphid); experiment: Insecticidal action test for Aphis gossipii Glover (drench); conditions: soil, 72 h, 500 ppm active ingredient, 5 ml drenched to foot of cucumber seedlings with hatchlings, 25° C., after 3 days, read-out: insect mortality
Description: A wettable powder prepared based on Formulation Example 2 was diluted with water so that the concentration of active ingredient became 500 ppm. 5 ml of the resulting diluted formulation was drenched to the […] foot of cucumber seedlings on which the hatchlings of Aphis gossipii Glover were parasitic. The resulting cucumber seedlings were placed in a thermostat of 25° C. After 3 days, the number of living insects was calculated and the mortality of insect was calculated using the calculation formula of Mathematical Expression 1.

[4] = system: Nilaparvata lugens Stál (brown rice planthopper); experiment: Insecticidal action test for Nilaparvata lugens Stál (immersed sprouting rice); conditions: 144 h, 500 ppm active ingredient, sprouting unhulled rice immersed, 3-age larvae, 25° C., after 6 days, read-out: insect mortality
Description: A wettable powder prepared based on Formulation Example 2 was diluted with water so that the concentration of active ingredient became 500 ppm. In the diluted formulation were immersed sprouting unhulled rice. The immersed rice was placed in a plastic cup of 60 ml. Into the plastic cup were released 10 3-age larvae of Nilaparvata lugens Stál (brown rice planthopper). The cup was covered with a cap and placed in a thermostat of 25° C. After 6 days, the number of living insects was counted and the mortality of insect was calculated using the calculation formula of Mathematical Expression 1.

CC(C)ON=C(Cl)C(=NOC(C)C)n1cncn1 [I-4, 1-(2-chloro-1,2-diisopropoxyiminoethyl)-1H-1,2,4-triazole] was tested, and the mortality at 1800 ppm [1] was no less than 90%, the mortality at 500 ppm [2] was no less than 90% and the mortality at 500 ppm [3] was no less than 90%. For the same compound, the mortality at 500 ppm [4] was no less than 90%.

Compound CC(C)ON=C(C#N)C(=NOC(C)C)n1cncn1 [I-50, 1-(2-cyano-1,2-diisopropoxyiminoethyl)-1H-1,2,4-triazole] has a mortality at 1800 ppm [1] of no less than 90%, a mortality at 500 ppm [2] of no less than 90% and a mortality at 500 ppm [4] of no less than 90%.

CC(C)ON=C(C(N)=O)C(=NOC(C)C)n1cncn1 [I-73, 1-(2-carbamoyl-1,2-diisopropoxyiminoethyl)-1H-1,2,4-triazole] showed a mortality at 500 ppm [4] of no less than 90%.

Compound CC(C)CON=C(N)C(=NOC(C)C)n1cncn1 [I-121, 1-(2-amino-2-isobutoxyimino-1-isopropoxyiminoethyl)-1H-1,2,4-triazole] has a mortality at 500 ppm [2] of no less than 90% and a mortality at 500 ppm [4] of no less than 90%.

Compound CC(C)ON=C(Br)C(=NOC(C)C)n1cncn1 [I-142, 1-(2-bromo-1,2-diisopropoxyiminoethyl)-1H-1,2,4-triazole] has a mortality at 1800 ppm [1] of no less than 90%, a mortality at 500 ppm [2] of no less than 90% and a mortality at 500 ppm [4] of no less than 90%.

With COC(=NOC(C)C)C(=NOC(C)C)n1cncn1 [I-165, 1-(1,2-diisopropoxyimino-2-methoxyethyl)-1H-1,2,4-triazole] the mortality at 1800 ppm [1] was no less than 90%, the mortality at 500 ppm [2] was no less than 90% and the mortality at 500 ppm [4] was no less than 90%.

Work on CC(C)ON=C(C(=NOC(C)C)n1cncn1)n1cncn1 [I-212, 1,2-diisopropoxyimino-1,2-bis(1H-1,2,4-triazol-1-yl)ethane] yielded a mortality at 500 ppm [2] of no less than 90% and a mortality at 500 ppm [4] of no less than 90%.

CC(C)ON=C(C(=NOC(C)C)n1cncn1)c1nnn[nH]1 [I-213, 1-[1,2-diisopropoxyimino-2-(1H-tetrazol-5-yl)ethyl]-1H-1,2,4-triazole] was tested, and the mortality at 500 ppm [4] was no less than 90%.

For CSC(=NOC(C)C)C(=NOC(C)C)n1cncn1 [I-228, 1-(2-methylthio-1,2-diisopropoxyiminoethyl)-1H-1,2,4-triazole], the mortality at 1800 ppm [1] was no less than 90%, the mortality at 500 ppm [2] was no less than 90% and the mortality at 500 ppm [4] was no less than 90%.

CC(=NOC(C)C)C(=NOC(C)C)n1ccnc1 [I-273, 1-(1,2-diisopropoxyiminopropyl)imidazole] was tested, and the mortality at 1800 ppm [1] was no less than 90%, the mortality at 500 ppm [2] was no less than 90% and the mortality at 500 ppm [4] was no less than 90%.

For CON=C(C(=NOC(C)C)C(=O)OC)n1cncn1 [II-221, 1-(2-isopropoxyimino-2-methoxycarbonyl-1-methoxyiminoethyl)-1H-1,2,4-triazole], the mortality at 500 ppm [2] was no less than 90% and the mortality at 500 ppm [4] was no less than 90%.

For CCSC(=O)C(=NOC(C)C)C(=NOC)n1cncn1 [II-222, S-ethyl 2-isopropoxyimino-3-methoxyimino-3-(1H-1,2,4-triazol-1-yl)propanethioate], the mortality at 500 ppm [2] was no less than 90% and the mortality at 500 ppm [4] was no less than 90%.

In the case of CON=C(C(=NOC(C)C)C(N)=S)n1cncn1 [II-224, 1-(2-isopropoxyimino-2-thiocarbamoyl-1-methoxyiminoethyl)-1H-1,2,4-triazole], the mortality at 1800 ppm [1] is reported as no less than 90%, the mortality at 500 ppm [2] is reported as no less than 90% and the mortality at 500 ppm [4] is reported as no less than 90%.

Work on CCCCON=C(C#N)C(=NOCC)n1cncn1 [III-51, 1-(2-n-butoxyimino-2-cyano-1-ethoxyiminoethyl)-1H-1,2,4-triazole] yielded a mortality at 500 ppm [2] of no less than 90% and a mortality at 500 ppm [4] of no less than 90%.

Compound CCCCON=C(C(N)=O)C(=NOCC)n1cncn1 [III-74, 1-(2-n-butoxyimino-2-carbamoyl-1-ethoxyiminoethyl)-1H-1,2,4-triazole] has a mortality at 500 ppm [4] of no less than 90%.

Compound CCCON=C(C#N)C(=NOCCC)n1cncn1 [IV-90, 1-[2-cyano-1,2-bis(n-propoxyimino)ethyl]-1H-1,2,4-triazole] has a mortality at 500 ppm [2] of no less than 90% and a mortality at 500 ppm [4] of no less than 90%.

CCCON=C(C(N)=O)C(=NOCCC)n1cncn1 [IV-101, 1-[2-carbamoyl-1,2-bis(n-propoxyimino)ethyl]-1H-1,2,4-triazole] showed a mortality at 1800 ppm [1] of no less than 90% and a mortality at 500 ppm [4] of no less than 90%.

With N#CC(=NOCC(F)(F)C(F)(F)F)C(=NOCC(F)(F)F)n1cncn1 [IV-185, 1-[2-cyano-2-(2,2,3,3,3-pentafluoro-n-propoxyimino)-1-(2,2,2-trifluoroethoxyimino)ethyl]-1H-1,2,4-triazole] the mortality at 500 ppm [4] was no less than 90%.

With CC(=NOC(C)C)C(=NOC(C)C)n1ccnc1S [V-10, 1-(1,2-diisopropoxyiminopropyl)-2-mercaptoimidazole] the mortality at 500 ppm [2] was no less than 90% and the mortality at 500 ppm [4] was no less than 90%.
